Data published in patent publication US20240336938A1, “COMPOSITIONS AND METHODS FOR EFFECTIVE DELIVERY OF POLYNUCLEOTIDES TO CELLS” (WUHAN UNIVERSITY, priority 2021, published 2024).

How the values were obtained:
STING [1] = assay: STING inhibitor pretreatment of THP-1 cells before HSV-1 stimulation, qPCR; format: cell-based, human; conditions: THP1 cells, indicated doses
STING [2] = assay: STING inhibitor pretreatment of T cells before DNA electroporation; format: cell-based, human

CCc1ccc(NC(=O)Nc2c[nH]c3ccccc23)cc1 [H151]
ISG56 and IFN-β response to HSV-1 (STING [1]): positive dose-response
IFNβ and ISG56 expression in DNA transfected T cells under inhibitor (STING [2]; 1 μM pretreatment, qPCR): upregulated
rescue of DNA-induced cell death (STING [2]; 1 μM, 16 h pretreatment, cell number 72 h post-EP): failed to rescue DNA-induced cell death
